Data published in the NIST ThermoML archive (doi:10.1016/j.fluid.2012.01.018).
± gives the expanded uncertainty stated by the source.

Conditions: 101.33 kPa, Liquid, Falling or rolling sphere viscometry

Compound	viscosity (298.15 K) [mPa·s]	viscosity (308.15 K) [mPa·s]	viscosity (318.15 K) [mPa·s]	viscosity (328.15 K) [mPa·s]	viscosity (338.15 K) [mPa·s]	viscosity (348.15 K) [mPa·s]
COCC[N+]1(C)CCOCC1.O=S(=O)([N-]S(=O)(=O)C(F)(F)F)C(F)(F)F	306.1 ± 19	155.9 ± 6.4	90.68 ± 2.5	57.23 ± 1.2	38.69 ± 0.84	27.54 ± 0.6
COCC[N+]1(C)CCCC1.O=S(=O)([N-]S(=O)(=O)C(F)(F)F)C(F)(F)F	54.52 ± 1.1	36.94 ± 0.8	26.41 ± 0.57	18.23 ± 0.39	14.06 ± 0.3	11.07 ± 0.24
COCC[N+]1(C)CCCCC1.O=S(=O)([N-]S(=O)(=O)C(F)(F)F)C(F)(F)F	102.6 ± 3.1	63.22 ± 1.4	41.92 ± 0.91	29.43 ± 0.64	21.53 ± 0.46	16.32 ± 0.35
